What was measured:
[1] = molecular target: PTRGER4 (EP4) (Homo sapiens (Human), UniProt P35408); test: hEP4 b-arrestin assay (PathHunter HEK 293 PTGER4 b-arrestin cells); format: cell-based; settings: antagonistic activity on hEP4; mean where measured multiple times
Procedure, shortened: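 Antagonist mode: compound is given 15 min at 37 °C, then 20 nM (final) PGE2 for 120 min, in HEK293 cells stably expressing EP4 fused to ProLink and β-arrestin 2 fused to EA. Recruitment read as β-gal luminescence after 1 h reagent at room temperature, as percent of DMSO control.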

[2] = molecular target: PTGER2 (EP2) (Homo sapiens (Human), UniProt P43116); test: hEP2 b-arrestin assay (PathHunter HEK 293 PTGER2 b-arrestin cells); format: cell-based; settings: antagonistic activity on hEP2; mean where measured multiple times
PTGER2 (EP2), sequence (P43116 whole entry): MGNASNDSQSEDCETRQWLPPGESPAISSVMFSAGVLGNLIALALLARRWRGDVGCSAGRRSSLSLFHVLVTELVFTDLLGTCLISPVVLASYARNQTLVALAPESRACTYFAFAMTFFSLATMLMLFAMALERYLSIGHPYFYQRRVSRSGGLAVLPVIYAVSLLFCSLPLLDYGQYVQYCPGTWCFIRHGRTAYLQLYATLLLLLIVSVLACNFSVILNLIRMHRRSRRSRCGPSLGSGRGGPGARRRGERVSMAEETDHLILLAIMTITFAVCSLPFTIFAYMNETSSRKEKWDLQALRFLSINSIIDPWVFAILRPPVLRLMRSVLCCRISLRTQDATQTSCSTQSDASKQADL
Procedure, shortened: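 Readout is β-galactosidase complementation luminescence, expressed as percent of DMSO control (duplicates). PathHunter HEK293 EP2/β-arrestin 2 cells, grown 24 h, received compound for 15 min at 37 °C before a 120 min challenge with PGE2 at 5 μM final, followed by 1 h detection at room temperature.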

PTRGER4 (EP4), sequence (P35408 whole entry, looked up, the tested form may be a part): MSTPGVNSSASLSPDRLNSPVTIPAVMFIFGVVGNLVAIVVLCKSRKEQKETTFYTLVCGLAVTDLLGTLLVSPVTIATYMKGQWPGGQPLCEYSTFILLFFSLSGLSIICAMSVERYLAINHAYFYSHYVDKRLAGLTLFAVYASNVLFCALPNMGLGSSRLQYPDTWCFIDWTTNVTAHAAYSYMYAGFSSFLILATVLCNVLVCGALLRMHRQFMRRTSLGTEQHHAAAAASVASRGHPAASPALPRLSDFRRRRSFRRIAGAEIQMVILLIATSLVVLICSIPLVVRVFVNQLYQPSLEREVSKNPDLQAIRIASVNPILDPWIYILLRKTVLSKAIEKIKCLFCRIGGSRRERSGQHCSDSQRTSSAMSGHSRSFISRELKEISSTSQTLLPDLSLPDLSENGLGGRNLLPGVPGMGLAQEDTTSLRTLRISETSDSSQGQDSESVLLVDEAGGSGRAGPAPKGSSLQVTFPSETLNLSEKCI

Compound: Cc1ccc(F)c2c1cc(C)n2CCNc1cc(-c2ccc(-c3ccn[nH]3)cc2)ncn1 [compound 70, [2-(7-Fluoro-2,4-dimethyl-indol-1-yl)-ethyl]-{6-[4-(2H-pyrazol-3-yl)-phenyl]-pyrimidin-4-yl}-amine]
- IC50 [1]: 145 nM
- IC50 [2]: 33 nM

Compound: Cc1ccc(F)c2c1cc(C)n2CCNc1cc(-c2ccc(-c3ncc[nH]3)cc2)ncn1 [compound 71]
- IC50 [1]: 758 nM
- IC50 [2]: 86 nM

Compound: Cc1ccc(F)c2c1cc(C)n2CCNc1cc(-c2ccc(-c3c[nH]cn3)cc2)ncn1 [compound 72, [2-(7-Fluoro-2,4-dimethyl-indol-1-yl)-ethyl]-{6-[4-(1H-imidazol-4-yl)-phenyl]-pyrimidin-4-yl}-amine]
- IC50 [1]: 28 nM
- IC50 [2]: 45 nM

Compound: Cc1ccc(F)c2c1cc(C)n2CCNc1cc(-c2ccc(-n3cccn3)cc2)ncn1 [compound 73]
- IC50 [1]: 970 nM
- IC50 [2]: 214 nM

Compound: COc1ccc(F)c2c1cc(C)n2CCNc1cc(-c2ccc3[nH]c(=O)[nH]c3c2)ncn1 [compound 74, 5-{6-[2-(7-Fluoro-4-methoxy-2-methyl-indol-1-yl)-ethylamino]-pyrimidin-4-yl}-1,3-dihydro-2H-benzo[d]imidazol-2-one]
- IC50 [1]: 916 nM
- IC50 [2]: 45 nM

Compound: COc1cccc2c1cc(C)n2CCNc1cc(-c2ccc(-c3ccn[nH]3)cc2)ncn1 [compound 75, [2-(4-Methoxy-2-methyl-indol-1-yl)-ethyl]-{6-[4-(2H-pyrazol-3-yl)-phenyl]-pyrimidin-4-yl}-amine]
- IC50 [1]: 95 nM
- IC50 [2]: 7 nM

Compound: COc1cccc2c1cc(C)n2CCNc1cc(-c2ccc(-c3ncc[nH]3)cc2)ncn1 [compound 76, {6-[4-(1H-Imidazol-2-yl)-phenyl]-pyrimidin-4-yl}-[2-(4-methoxy-2-methyl-indol-1-yl)-ethyl]-amine]
- IC50 [1]: 651 nM
- IC50 [2]: 21 nM

Compound: COc1cccc2c1cc(C)n2CCNc1cc(-c2ccc(-c3c[nH]cn3)cc2)ncn1 [compound 77, {6-[4-(1H-Imidazol-4-yl)-phenyl]-pyrimidin-4-yl}-[2-(4-methoxy-2-methyl-indol-1-yl)-ethyl]-amine]
- IC50 [1]: 89 nM
- IC50 [2]: 8 nM

Compound: COc1cccc2c1cc(C)n2CCNc1cc(-c2ccc(-n3cccn3)cc2)ncn1 [compound 78, [2-(4-Methoxy-2-methyl-indol-1-yl)-ethyl]-[6-(4-pyrazol-1-yl-phenyl)-pyrimidin-4-yl]-amine]
- IC50 [1]: 557 nM
- IC50 [2]: 20 nM

Compound: Cc1ccc(F)c2c1cc(C)n2CCNc1cc(-c2ccc(-c3ncno3)cc2)ncn1 [compound 79, [2-(7-Fluoro-2,4-dimethyl-indol-1-yl)-ethyl]-[6-(4-[1,2,4]oxadiazol-5-yl-phenyl)-pyrimidin-4-yl]-amine]
- IC50 [1]: 197 nM
- IC50 [2]: 11 nM

Compound: COc1ccc(Cl)c2c1cc(C)n2CCNc1cc(-c2ccc3[nH]c(C)nc3c2)ncn1 [compound 80]
- IC50 [1]: 713 nM
- IC50 [2]: 238 nM

Compound: COc1ccc(F)c2c1cc(C)n2CCNc1cc(-c2ccc3[nH]c(C)nc3c2)ncn1 [compound 81, [2-(7-Fluoro-4-methoxy-2-methyl-indol-1-yl)-ethyl]-[6-(2-methyl-1H-benzoimidazol-5-yl)-pyrimidin-4-yl]-amine]
- IC50 [1]: 86 nM
- IC50 [2]: 44 nM

Compound: COc1ccc(Cl)c2c1cc(C)n2CCNc1cc(-c2ccc3cnn(C)c3c2)ncn1 [compound 82]
- IC50 [1]: 968 nM
- IC50 [2]: 193 nM

Compound: Cc1cc(F)cc2c1cc(C)n2CCNc1cc(-c2ccc(-c3ccns3)cc2)ncn1 [compound 84]
- IC50 [1]: 310 nM
- IC50 [2]: 89 nM

Compound: COc1cccc2c1cc(C)n2CCNc1cc(-c2ccc3c(c2)CN(C)C3=O)ncn1 [compound 87]
- IC50 [1]: 885 nM
- IC50 [2]: 121 nM

Compound: COc1cc(F)cc2c1cc(C)n2CCNc1cc(-c2ccc3c(c2)CC(=O)N3)ncn1 [compound 88]
- IC50 [1]: 185 nM
- IC50 [2]: 54 nM

Compound: COc1ccc(F)c2c1cc(C)n2CCNc1cc(-c2ccc3nc(C)oc3c2)ncn1 [compound 89]
- IC50 [1]: 132 nM
- IC50 [2]: 115 nM

Compound: COc1ccc(F)c2c1cc(C)n2CCNc1cc(-c2ccc3c(c2)CNC3=O)ncn1 [compound 90, 5-{6-[2-(7-Fluoro-4-methoxy-2-methyl-indol-1-yl)-ethylamino]-pyrimidin-4-yl}-2,3-dihydro-isoindol-1-one]
- IC50 [1]: 461 nM
- IC50 [2]: 7 nM

Compound: COc1ccc(F)c2c1cc(C)n2CCNc1cc(-c2ccc3c(c2)CC(=O)N3)ncn1 [compound 91, 5-{6-[2-(7-Fluoro-4-methoxy-2-methyl-indol-1-yl)-ethylamino]-pyrimidin-4-yl}-1,3-dihydro-indol-2-one]
- IC50 [1]: 144 nM
- IC50 [2]: 32 nM

Compound: COc1cc(F)c(F)c2c1cc(C)n2CCNc1cc(-c2ccc3cc[nH]c3c2)ncn1 [compound 92, [2-(6,7-Difluoro-4-methoxy-2-methyl-indol-1-yl)-ethyl]-[6-(1H-indol-6-yl)-pyrimidin-4-yl]-amine]
- IC50 [1]: 358 nM
- IC50 [2]: 48 nM

Compound: Cc1cc(F)c(F)c2c1cc(C)n2CCNc1cc(-c2ccc3c(c2)CC(=O)N3)ncn1 [compound 93]
- IC50 [1]: 475 nM
- IC50 [2]: 183 nM

Compound: Cc1cc(F)cc2c1cc(C)n2CCNc1cc(-c2ccc(-c3ccon3)cc2)ncn1 [compound 94, [2-(6-Fluoro-2,4-dimethyl-indol-1-yl)-ethyl]-[6-(4-isoxazol-3-yl-phenyl)-pyrimidin-4-yl]-amine]
- IC50 [1]: 299 nM
- IC50 [2]: 30 nM

Compound: Cc1ccc(F)c2c1cc(C)n2CCNc1cc(-c2ccc3c(c2)CN(C)C3=O)ncn1 [compound 95]
- IC50 [1]: 167 nM
- IC50 [2]: 59 nM

Compound: Cc1ccc(F)c2c1cc(C)n2CCNc1cc(-c2ccc(-c3cnco3)cc2)ncn1 [compound 97]
- IC50 [1]: 527 nM
- IC50 [2]: 177 nM

Compound: COc1cccc2c1cc(C)n2CCNc1cc(-c2ccc(-c3cscn3)cc2)ncn1 [compound 98, [2-(4-Methoxy-2-methyl-indol-1-yl)-ethyl]-[6-(4-thiazol-4-yl-phenyl)-pyrimidin-4-yl]-amine]
- IC50 [1]: 230 nM
- IC50 [2]: 7 nM

Compound: Cc1ccc(F)c2c1cc(C)n2CCNc1cc(-c2ccc(-c3nnc[nH]3)cc2)ncn1 [compound 99]
- IC50 [1]: 123 nM
- IC50 [2]: 113 nM

Compound: COc1cccc2c1cc(C)n2CCNc1cc(-c2ccc(-c3nnc[nH]3)cc2)ncn1 [compound 100, [2-(4-Methoxy-2-methyl-indol-1-yl)-ethyl]-{6-[4-(4H-[1,2,4]triazol-3-yl)-phenyl]-pyrimidin-4-yl}-amine]
- IC50 [1]: 202 nM
- IC50 [2]: 11 nM

Compound: COc1ccc(F)c2c1cc(C)n2CCNc1cc(-c2csc(CO)c2)ncn1 [compound 101]
- IC50 [1]: 548 nM
- IC50 [2]: 37 nM

Compound: Cc1c(F)cc2c(cc(C)n2CCNc2cc(-c3ccc(C(=O)O)c(CC(C)C)c3)ncn2)c1F [compound 102]
- IC50 [1]: 597 nM
- IC50 [2]: 142 nM

Compound: CCc1cc(-c2cc(NCCn3c(C)cc4c(C)ccc(F)c43)ncn2)sc1C(=O)O [compound 103]
- IC50 [1]: 58 nM
- IC50 [2]: 13 nM

Compound: CCc1cc(-c2cc(NCCn3c(C)cc4c(C)cc(F)cc43)ncn2)sc1C(=O)O [compound 104]
- IC50 [1]: 44 nM
- IC50 [2]: 24 nM

Compound: Cc1cc(F)cc2c1cc(C)n2CCNc1cc(-c2ccc(C(=O)O)c(Cl)c2)ncn1 [compound 105]
- IC50 [1]: 934 nM
- IC50 [2]: 34 nM

Compound: Cc1cc(-c2cc(NCCn3c(C)cc4c(Cl)ccc(F)c43)ncn2)ccc1C(=O)O [compound 106]
- IC50 [1]: 698 nM
- IC50 [2]: 44 nM

Compound: COc1ccc(F)c2c1cc(C)n2CCNc1cc(-c2cc(C)c(C(=O)O)s2)ncn1 [compound 107]
- IC50 [1]: 46 nM
- IC50 [2]: 5 nM

Compound: CCOc1cc(-c2cc(NCCn3c(C)cc4c(Cl)cccc43)ncn2)sc1C(=O)O [compound 108]
- IC50 [1]: 15 nM
- IC50 [2]: 1 nM

Compound: COc1ccc(F)c2c1cc(C)n2CCNc1cc(-c2ccc(C(=O)O)cc2)ncn1 [compound 109]
- IC50 [1]: 955 nM
- IC50 [2]: 49 nM

Compound: CCc1cc(-c2cc(NCCn3c(C)cc4c(OC)cccc43)ncn2)sc1C(=O)O [compound 110]
- IC50 [1]: 46 nM
- IC50 [2]: 3 nM

Compound: COc1ccc(Cl)c2c1cc(C)n2CCNc1cc(-c2cc(F)c(C(=O)O)s2)ncn1 [compound 111]
- IC50 [1]: 166 nM
- IC50 [2]: 31 nM

Compound: COc1ccc(F)c2c1cc(C)n2CCNc1cc(-c2cc(F)c(C(=O)O)s2)ncn1 [compound 112]
- IC50 [1]: 69 nM
- IC50 [2]: 4 nM

Compound: COc1cc(F)cc2c1cc(C)n2CCNc1cc(-c2cc(F)c(C(=O)O)s2)ncn1 [compound 113]
- IC50 [1]: 57 nM
- IC50 [2]: 8 nM

Compound: COc1ccc(F)c2c1cc(C)n2CCNc1cc(-c2cc(Cl)c(C(=O)O)s2)ncn1 [compound 114]
- IC50 [1]: 27 nM
- IC50 [2]: 4 nM

Compound: COc1ccc(F)c2c1cc(C)n2CCNc1cc(-c2ccc3[nH]c(=O)[nH]c3c2)ncn1 [compound 115]
- IC50 [1]: 742 nM
- IC50 [2]: 56 nM

Compound: COc1ccc(F)c2c1cc(C)n2CCNc1cc(-c2ccc(S(=O)(=O)O)cc2)ncn1 [compound 116, 4-{6-[2-(7-Fluoro-4-methoxy-2-methyl-indol-1-yl)-ethylamino]-pyrimidin-4-yl}-benzenesulfonic acid]
- IC50 [1]: 382 nM
- IC50 [2]: 19 nM

Compound: CCOc1cc(-c2cc(NCCn3c(C)cc4ccc(OC)cc43)ncn2)sc1C(=O)O [compound 117, 3-Ethoxy-5-{6-[2-(6-methoxy-2-methyl-indol-1-yl)-ethylamino]-pyrimidin-4-yl}-thiophene-2-carboxylic acid]
- IC50 [1]: 114 nM
- IC50 [2]: 1 nM

Compound: CCc1cc(-c2cc(NCCn3c(C)cc4c(CC)cccc43)ncn2)ccc1C(=O)O [compound 118, 2-Ethyl-4-{6-[2-(4-ethyl-2-methyl-indol-1-yl)-ethylamino]-pyrimidin-4-yl}-benzoic acid]
- IC50 [1]: 933 nM
- IC50 [2]: 612 nM

— patent publication US12011444B2, “N-substituted indole derivatives as PGE2 receptor modulators” (Idorsia Pharmaceuticals Ltd, priority 2015, dated 2024)
